Key:
[1] = test system: Keratin 14; experiment: Keratins expression profile in HEKa with 1 mM CaCl2, Real Time PCR Arrays (Keratin 14); type: cell-based, Human; conditions: Keratin 14 mRNA, 48 hours
Description: The candidate compound is assayed for its ability to recover the basal keratinocyte state. The keratinocytes of the four layers of the epidermis present different expression patterns of keratins. Basal keratinocytes strongly express Keratin 14 and when differentiated, Keratin 10 is increased. To elucidate the keratinocyte state (basal or differentiated), the expression profile of keratins is analyzed by Real Time PCR Arrays, using a 96-well panel for use with SYBR® Green (BioRad) to detect mRNA expression levels of two keratin genes (Keratins 10 and 14) plus three housekeeping genes, and five controls, in Human Epidermal Keratinocytes from adult (HEKa) (Cascade Biologics).
HEKa cells are seeded at 6.0×10^5 cells/well in 6-well plates and incubated in culture medium Epilife with defined Growth Supplement (EDGS) (Cascade Biologics), for 24 hours at 37° C. in a water-saturated atmosphere of 95% air and 5% CO2. After 24 hours, the medium is removed and the cells are incubated with the synthetic peptide candidate at several concentrations in culture medium that contains 1 mM CaCl2) (Sigma) to induce differentiation of keratinocytes. Cells are incubated with 1 mM CaCl2) in culture medium and this provides a positive control of differentiation. Cells are incubated with culture medium only and these provide basal conditions. After 48 hours of treatment at 37° C. in a CO2 incubator, the cells are lysed directly in the wells, and RNA is purified following the protocol described on the RNeasy Mini kit (Qiagen) according to the manufacture's protocol. After RNA elution, quantification and analysis of purity of RNA samples are performed with a biophotometer (Eppendorf). […] SYBR Green binds to double-stranded DNA molecules and emits fluorescence which is quantified; the fluorescence intensity is proportional to the amount of the product in the PCR reaction. […] Fold change relative to the expression of the sample genes and reference genes is calculated using normalized expression (ΔΔ(Ct)) method using CFX Manager Software (BioRad).

[2] = test system: MYC; experiment: Modulation of stem cell markers in HEKa, Real Time PCR Arrays (MYC mRNA); type: cell-based, Human; conditions: 48 hours
Description: The candidate compound is evaluated for the modulation of several stem cell markers, those transcription factors regulated by miRNA145 (SOX2, OCT4, KLF4 and MYC). Gene expression profiles are analyzed by Real Time PCR Arrays using a 96-well panel for use with SYBR® Green (BioRad) to detect mRNA expression levels of stem cell markers plus three housekeeping genes, and five controls, in Human Epidermal Keratinocytes from adult (HEKa) (Cascade Biologics).
HEKa cells are seeded at 6.0×10^5 cells/well in 6-well plates and incubated in culture medium, Epilife with defined Growth Supplement (EDGS) (Cascade Biologics), for 24 hours at 37° C. in a water-saturated atmosphere of 95% air and 5% CO2. After 24 hours, the medium is removed and the cells are incubated with the synthetic peptide DD14024 at several concentrations in a culture medium. Cells are incubated with culture medium only and these provide the basal conditions. After 48 hours of treatment at 37° C. in a CO2 incubator, the cells are lysed directly in the wells, and RNA is purified following the protocol described on the RNeasy Mini kit (Qiagen) according to the manufacturer's protocol. After RNA elution, quantification and analysis of purity of RNA samples are performed with a biophotometer (Eppendorf). For each sample, 2 μg of high quality RNA is retrotranscribed with iScript Advanced (BioRad) in a final volume of 20 μl. The complete reaction mix is incubated in a thermal cycler (Eppendorf) at 42° C. for 30 minutes and the reaction is stopped at 85° C. for 5 minutes (?). Complementary DNA is amplified by qPCR in a real-time PCR thermocycler (BioRad) using SYBR Green Supermix (BioRad) in the 96-well panel for use with SYBR® Green (BioRad). SYBR Green binds to double-stranded DNA molecules and emits fluorescence which is quantified; the fluorescence intensity is proportional to the amount of the product in the PCR reaction. […] Fold change relative to the expression of the sample genes and reference genes is calculated using normalized expression (ΔΔ(Ct)) method using CFX Manager Software (BioRad). […]

In the case of “Ac-QEMRMQ-OH [DD14024, Ac-Gln-Glu-Met-Arg-Met-Gln-OH]”, the “Fold induction respect to positive control of differentiation” value ([1]; 1 mM CaCl2, 0.001 mg/ml) is reported as 1.29 ± 0.15, the “Fold induction respect to positive control of differentiation” value ([1]; 1 mM CaCl2, 0.005 mg/ml) is reported as 1.36 ± 0.15 and the “Fold induction respect to positive control of differentiation” value ([1]; 1 mM CaCl2, 0.01 mg/ml) is reported as 1.30 ± 0.09. The “Fold induction respect to basal conditions” value ([2]; 0.001 mg/ml) was 0.91 ± 0.05, the “Fold induction respect to basal conditions” value ([2]; 0.005 mg/ml) was 0.65 ± 0.08 and the “Fold induction respect to basal conditions” value ([2]; 0.01 mg/ml) was 0.65 ± 0.07.
